“Also recorded” adds a separate entry of the source.
Biological target: T1, human DNA polymerase α (Homo sapiens, UniProt P09884)
T1 construct: purchased Chimerx
T1 sequence (P09884 1-1462): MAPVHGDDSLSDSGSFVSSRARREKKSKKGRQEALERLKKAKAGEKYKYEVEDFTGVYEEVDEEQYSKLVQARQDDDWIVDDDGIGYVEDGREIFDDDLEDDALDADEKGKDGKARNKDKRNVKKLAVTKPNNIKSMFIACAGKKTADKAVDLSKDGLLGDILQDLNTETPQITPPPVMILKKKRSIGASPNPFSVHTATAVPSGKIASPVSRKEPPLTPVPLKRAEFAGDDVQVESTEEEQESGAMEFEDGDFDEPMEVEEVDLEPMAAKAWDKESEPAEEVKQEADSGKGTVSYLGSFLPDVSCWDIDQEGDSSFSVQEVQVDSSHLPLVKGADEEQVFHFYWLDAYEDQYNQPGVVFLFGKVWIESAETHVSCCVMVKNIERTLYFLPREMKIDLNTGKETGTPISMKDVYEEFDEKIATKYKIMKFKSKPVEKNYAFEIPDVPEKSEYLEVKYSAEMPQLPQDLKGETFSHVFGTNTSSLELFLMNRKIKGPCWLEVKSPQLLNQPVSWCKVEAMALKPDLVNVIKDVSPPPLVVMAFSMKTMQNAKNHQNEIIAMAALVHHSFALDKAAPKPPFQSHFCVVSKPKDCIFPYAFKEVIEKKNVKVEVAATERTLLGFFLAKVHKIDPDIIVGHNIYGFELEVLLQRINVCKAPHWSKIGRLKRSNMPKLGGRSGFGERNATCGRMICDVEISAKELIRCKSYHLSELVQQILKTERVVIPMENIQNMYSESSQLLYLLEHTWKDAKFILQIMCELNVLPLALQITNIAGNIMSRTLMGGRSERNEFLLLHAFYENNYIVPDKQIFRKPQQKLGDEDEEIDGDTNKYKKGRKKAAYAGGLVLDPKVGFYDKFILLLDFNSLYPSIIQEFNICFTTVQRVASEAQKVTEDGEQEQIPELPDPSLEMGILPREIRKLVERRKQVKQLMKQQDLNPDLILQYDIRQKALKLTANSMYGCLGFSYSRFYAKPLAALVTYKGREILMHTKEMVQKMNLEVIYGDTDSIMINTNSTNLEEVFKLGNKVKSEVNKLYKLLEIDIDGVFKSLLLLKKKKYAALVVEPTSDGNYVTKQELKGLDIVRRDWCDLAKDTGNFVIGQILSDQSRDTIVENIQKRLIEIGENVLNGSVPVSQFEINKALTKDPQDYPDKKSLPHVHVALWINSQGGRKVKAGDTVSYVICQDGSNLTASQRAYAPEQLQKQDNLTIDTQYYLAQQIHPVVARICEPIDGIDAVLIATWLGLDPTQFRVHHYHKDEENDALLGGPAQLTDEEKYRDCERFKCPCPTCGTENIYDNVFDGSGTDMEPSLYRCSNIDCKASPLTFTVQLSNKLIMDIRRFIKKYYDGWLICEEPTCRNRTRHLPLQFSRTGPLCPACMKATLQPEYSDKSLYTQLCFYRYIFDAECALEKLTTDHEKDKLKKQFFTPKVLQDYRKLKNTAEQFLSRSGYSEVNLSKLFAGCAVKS
Assay: Primer extension assay using human DNA polymerase α
Type: biochemical
Conditions: 60 min, 2 U, 37 °C
Excerpt: Encouraged by the previously obtained results that γ-phosphate-modified-d4TDPs 3, γ-monoalkylated d4TTP derivatives as well as d4TDP were accepted as substrates by HIV-RT,[49],[50],[55],[59]−[61] δ-dialkylated d4T tetraphosphate analogues 4,5, δ-monoalkylated d4T tetraphosphate analogues 20 and 24 and d4T4P were investigated in primer extension assays in the presence of HIV-RT or the three different human DNA polymerases α, β and γ. D4TTP (for the compounds 4–9) and the natural thymidine triphosphate (TTP) were used as reference compounds.
Figure 6 Primer extension assay using HIV-RT (A), human polymerases α (B), β (C), and γ (D). (Figure 6A). Primer extension assay using HIV-RT (30 min, 6U). Lane 1: (+) dATP, dCTP, dGTP, and TTP with HIV-RT. Lane 2: (−) dATP, dCTP, dGTP, and TTP without HIV-RT. Lane 3: TTP. […] Lane 5: δ-(C4; C18)-d4T4P 4d. […] Lane 7: δ-(C18)-d4T4P 20. Lane 8: δ-C-(C18)-d4T4P 24. Lane 9: d4T4P. Lane 10: d4TTP. Lane 11: d4TDP. HIV-RT assay reaction conditions: 50 mM Tris–HCl (pH 8.6), 10 mM MgCl2, 40 mM KCl, 250 μM dNTPs, HIV-RT (6 U), 0.20 μM DNA hybrid, primer-template-hybrid 0.32 mM in a reaction volume of 10 μL, incubated at 37 °C for 0.5 h, 80 °C for 7 min. Primer extension assays: 50 mA, 45 w for 4 h. (Figure 6B). For human DNA polymerase α assay (60 min, 2 U): Lane 1: (+) dATP, dCTP, dGTP, and TTP with human polymerase α. Lane 2: (−) dATP, dCTP, dGTP, and TTP without human polymerase α. Lane 3: TTP. […] Lane 5: δ-(C4; C18)-d4T4P 4d. […] Lane 7: δ-(C18)-d4T4P 20. Lane 8: δ-C-(C18)-d4T4P 24. Lane 9: d4T4P. Lane 10: d4TTP. Human DNA polymerase α assay conditions: 60 mM Tris–HCl (pH 8), 5 mM Mg(OAc)2, 100 mM KCl, 1.0 mM dithiothreitol, 0.1 mM spermine, 0.01% (w/v) bovine serum albumin, 250 μM dNTPs, 2 U human polymerase α, 0.20 μM DNA hybrid, and primer-template-hybrid 0.32 mM in a reaction volume of 10 μL, incubated at 37 °C for 1 h, 80 °C for 7 min. Primer extension assays: 50 mA, 45 w for 3 h. (Figure 6C). For human DNA polymerase β assay (60 min, 2 U): Lane 1: (+) dATP, dCTP, dGTP, and TTP with human polymerase β. […]

## Cc1cn([C@H]2C=C[C@@H](COP(=O)(O)OP(=O)(O)OP(=O)(O)OP(=O)(O)O)O2)c(=O)[nH]c1=O [d4T4P, 2′,3′-didehydro-2′,3′-dideoxythymidine-5′-tetraphosphate]
  substrate for human DNA polymerase α (primer extension): nonsubstrates; also recorded: not a substrate

## CCCCCCCCCCCCCCCCCCOP(=O)(O)OP(=O)(O)OP(=O)(O)OP(=O)(O)OC[C@@H]1C=C[C@H](n2cc(C)c(=O)[nH]c2=O)O1 [compound 20, δ-(Alkyl-C18)-d4T4P]
  substrate for human DNA polymerase α (primer extension): nonsubstrates

## CCCCCCCCCCCCCCCCCCP(=O)(O)OP(=O)(O)OP(=O)(O)OP(=O)(O)OC[C@@H]1C=C[C@H](n2cc(C)c(=O)[nH]c2=O)O1 [compound 24, δ-C-(Alkyl-C18)-d4T4P]
  substrate for human DNA polymerase α (primer extension): nonsubstrates
